How the values were obtained:
Assay type in all cases: in vivo
[1] = test system: adult engorged female ticks (Rhipicephalus microplus); experiment: Rhipicephalus (Boophilus) microplus injection test; conditions: 168 h, egg deposition after 7 days, read-out: efficacy (infertile eggs); for pest or weed control at 0.004 mg: 4 μg/animal; for pest or weed control at 0.02 mg: 20 μg/animal
Method: (§1) Solvent: dimethyl sulfoxide
To produce a suitable preparation of active compound, 10 mg of active compound are dissolved in 0.5 mL solvent, and the concentrate is diluted with solvent to the desired concentration.
Five adult engorged female ticks (Rhipicephalus microplus) are injected with 1 μL compound solution into the abdomen. The ticks are transferred into replica plates and incubated in a climate chamber.
After 7 days egg deposition of fertile eggs is monitored. Eggs where fertility is not visible are stored in a climate chamber till hatching after about 42 days. An efficacy of 100% means all eggs are infertile; 0% means all eggs are fertile.

[2] = test system: adult unfed cat fleas (Ctenocephalides felis); experiment: Ctenocephalides felis oral test; conditions: 48 h, 100 ppm in cattle blood, after 2 days
Method: as §1
To produce a suitable preparation of active compound, 10 mg of active compound are dissolved in 0.5 mL solvent, and the concentrate is diluted with cattle blood to the desired concentration.
Approximately 20 adult unfed cat fleas (Ctenocephalides felis) are placed in flea chambers. The blood chamber, sealed with parafilm on the bottom, are filled with cattle blood supplied with compound solution and placed on the gauze covered top of the flea chamber, so that the fleas are able to suck the blood. The blood chamber is heated to 37° C. whereas the flea chamber is kept at room temperature.
After 2 days mortality in % is determined. 100% means all the fleas have been killed; 0% means none of the fleas have been killed.

[3] = test system: larvae of the banded cucumber beetle (Diabrotica balteata); experiment: Diabrotica balteata spray test; conditions: 168 h, after 7 days, wheat seeds, read-out: efficacy (seedlings grown up); for pest or weed control at 32 µg/disc, 100 g/ha: 100 g/ha (=32 μg/well)
Method: (§2) Solvent: 78.0 parts by weight of acetone • • 1.5 parts by weight of dimethylformamide
(§3) Emulsifier: alkylarylpolyglycol ether
(§4) To produce a suitable preparation of active compound, 1 part by weight of active compound is mixed with the stated amount of solvent, and the concentrate is diluted with water, containing an emulsifier concentration of 1000 ppm, to the desired concentration. Further test concentrations are prepared by dilution with emulsifier containing water.
Soaked wheat seeds (Triticum aestivum) are placed in a multiple well plate filled with agar and some water and are incubated for 1 day to germinate (5 seeds per well). The germinated wheat seeds are sprayed with a test solution containing the desired concentration of the active ingredient. Afterwards each unit is infected with 10-20 larvae of the banded cucumber beetle (Diabrotica balteata).
After 7 days efficacy in % is determined. 100% means all the seedlings have grown up like in the untreated, uninfected control; 0% means none of the seedlings have grown.

[4] = test system: larvae of the southern green stink bug (Nezara viridula); experiment: Nezara viridula spray test; conditions: in Hordeum vulgare, 96 h
Method: as §2, §3, §4
Barley plants (Hordeum vulgare) infested with larvae of the southern green stink bug (Nezara viridula) are sprayed with a test solution containing the desired concentration of the active ingredient.
After 4 days mortality in % is determined. 100% means all the stink bugs have been killed; 0% means none of the stink bugs have been killed.

[5] = test system: fall armyworm larvae (Spodoptera frugiperda); experiment: Spodoptera frugiperda spray test (maize leaf sections); conditions: 168 h
Method: Solvent: 78.0 parts by weight acetone • 1.5 parts by weight dimethylformamide
as §3
To produce a suitable preparation of active compound, 1 part by weight of active compound is mixed with the stated amount of solvents and is diluted with water, containing an emulsifier concentration of 1000 ppm, to the desired concentration. Further test concentrations are prepared by dilution with emulsifier containing water.
Maize (Zea mays) leaf sections are sprayed with a preparation of the active ingredient of the desired concentration. Once dry, the leaf sections are infested with fall armyworm larvae (Spodoptera frugiperda).
After 7 days mortality in % is determined. 100% means all caterpillars have been killed and 0% means none of the caterpillars have been killed.

[6] = test system: cattle tick larvae (Rhipicephalus microplus), strain Parkhurst, resistant against synthetic pyrethroids; experiment: Rhipicephalus (Boophilus) microplus in-vitro contact test, larval cattle tick; conditions: 5 μg/cm^2 (=500 g/ha), after 48 hours, read-out: efficacy (larvae dead or moribund)
Method: 9 mg compound is solved in 1 mL acetone and diluted with acetone to the desired concentration. 250 μL of the test solution is filled in 25 mL glass test tubes and homogeneously distributed on the inner walls by rotation and tilting on a shaking device (2 h at 30 rpm). With a compound concentration of 900 ppm, an inner surface of 44.7 cm^2 and a homogeneous distribution, a dose of 5 μg/cm^2 is achieved.
After the solvent has evaporated, each test tube is filled with 20-50 cattle tick larvae (Rhipicephalus microplus), closed with a perforated lid and incubated in a horizontal position at 85% relative humidity and 27° C. in an incubator. After 48 hours efficacy is determined. The larvae are patted on the ground of the tubes and negative geotactic behaviour is recorded.
An efficacy of 100% means all larvae are dead or moribund; 0% means no larvae are dead or moribund.

SMILES	pest or weed control at 32 µg/disc, 100 g/ha [3] [%]	mortality at 500 g/ha [4] [%]	mortality at 100 g/ha [5] [%]	further results
CC(NC(=O)c1cc(Cl)cc(Cl)c1)c1nc(CS(C)(=O)=O)nn1-c1ccc(Cl)cn1 (centres unmarked) [I-028]				pest or weed control at 0.004 mg [1]: 100%; pest or weed control at 0.02 mg [1]: 100%; mortality at 100 ppm [2]: 100%
CC(NC(=O)c1cncc(C(F)(F)F)c1)c1nc(CS(C)(=O)=O)nn1-c1ccc(Cl)cn1 (centres unmarked) [I-030]				pest or weed control at 0.004 mg [1]: 100%; pest or weed control at 0.02 mg [1]: 100%; mortality at 100 ppm [2]: 100%
CC(NC(=O)c1cc(Cl)nc(Cl)c1)c1nc(-c2cnccn2)nn1-c1ncccn1 (centres unmarked) [I-049]				pest or weed control at 0.004 mg [1]: 80%; pest or weed control at 0.02 mg [1]: 100%; mortality at 100 ppm [2]: 100%
C[C@H](NC(=O)c1cc(C(F)(F)F)cc(C(F)(F)F)c1)c1nc(N2CCCC2)nn1-c1ncccn1 [I-190]	100	100	100	
CC(NC(=O)c1cc(OC(F)(F)F)cc(S(=O)(=O)C2CC2)c1)c1nc(N(C)C)nn1-c1ncc(Cl)cn1 (centres unmarked) [I-193]	100	100	100	
C[C@H](NC(=O)c1cc(Cl)cc(C(C)(C)C#N)c1)c1nc(N2CCOCC2)nn1-c1ccc(C#N)cn1 [I-204]		100	100	
CC(NC(=O)c1cc(Cl)cc(C(C)(C)C#N)c1)c1nc(N(C)C)nn1-c1ccc(C#N)cn1 (centres unmarked) [I-156]	100	100	100	
CC(NC(=O)c1cc(Cl)cc(S(C)(=O)=O)c1)c1nc(N(S(C)(=O)=O)S(C)(=O)=O)nn1-c1ccc(Cl)cn1 (racemic) [I-026, N-[1-[5-[bis(methylsulfonyl)amino]-2-(5-chloro-2-pyridyl)-1,2,4-triazol-3-yl]ethyl]-3-chloro-5-methylsulfonyl-benzamide]		90		pest or weed control at 0.004 mg [1]: 100%; pest or weed control at 0.02 mg [1]: 100%; pest or weed control at 160 µg/disc, 500 g/ha ([3]; 500 g/ha (=160 μg/well)): 100%
CC(NC(=O)c1cc(Cl)cc(S(C)(=O)=O)c1)c1nc(N(C)C)nn1-c1ncc(Cl)cn1 (centres unmarked) [I-171]		100	100	
CC(NC(=O)c1cc(C(F)(F)F)cc(C(F)(F)F)c1)c1nc(N(C)C)nn1-c1ccc(C#N)cn1 (centres unmarked) [I-162]	100	100	100	
CC(NC(=O)c1cc(Cl)cc(S(C)(=O)=O)c1)c1nc(SC(F)(C(F)(F)F)C(F)(F)F)nn1-c1ccc(Cl)cn1 (centres unmarked) [I-069]				pest or weed control at 5 µg/cm2 [6]: 100%; pest or weed control at 0.004 mg [1]: 100%; pest or weed control at 0.02 mg [1]: 100%
CC(NC(=O)c1cc(OC(F)(F)F)cc(C2CC2)c1)c1nc(N2CCCCC2)nn1-c1ncccn1 (centres unmarked) [I-196]		90		
CC(NC(=O)c1cc(Cl)cc(S(C)(=O)=O)c1)c1nc(N(C)C)nn1-c1ccc(C#N)cn1 (centres unmarked) [I-157]		90		
CC(NC(=O)c1cc(Br)cc(Br)c1)c1nc(NC(=O)OC(C)(C)C)nn1-c1ccc(C(=O)N2CCOCC2)cn1 (racemic) [I-106, tert-butyl N-[5-[1-[(3,5-dibromobenzoyl)amino]ethyl]-1-[5-(morpholine-4-carbonyl)-2-pyridyl]-1,2,4-triazol-3-yl]carbamate]				pest or weed control at 5 µg/cm2 [6]: 80%
CC(NC(=O)c1cc(OC(F)(F)F)cc(C2CC2)c1)c1nc(N(C)C)nn1-c1ncc(Cl)cn1 (centres unmarked) [I-166]	100	100	100	
CSc1nc(C(C)NC(=O)c2cc(OC(F)(F)F)cc(S(C)(=O)=O)c2)n(-c2ncc(C#N)s2)n1 (centres unmarked) [I-167, N-{1-[1-(5-cyano-1,3-thiazol-2-yl)-3-(methylsulfanyl)-1H-1,2,4-triazol-5-yl]ethyl}-3-(methylsulfonyl)-5-(trifluoromethoxy)benzamide]	100	100	100	
CC(NC(=O)c1cc(OC(F)(F)F)cc(C2CC2)c1)c1nc(N(C)C)nn1-c1ccc(C#N)cn1 (centres unmarked) [I-164]	100	100	100	
CC(NC(=O)c1cc(OC(F)(F)F)cc(C2CC2)c1)c1nc(N)nn1-c1ccc(C#N)cn1 (centres unmarked) [I-122]	100			pest or weed control at 5 µg/cm2 [6]: 100%
CC(NC(=O)c1cc(C(F)(F)F)cc(C(F)(F)F)c1)c1nc(NC(=O)OC(C)(C)C)nn1-c1ccc(C(=O)N2CCOCC2)cn1 (centres unmarked) [I-113]	100			pest or weed control at 5 µg/cm2 [6]: 90%
CC(NC(=O)c1cc(Cl)cc(S(C)(=O)=O)c1)c1nc(Cc2ccccc2)nn1-c1ncccn1 (centres unmarked) [I-084]				mortality at 100 g/ha [4]: 90%
CC(NC(=O)c1cc(C(F)(F)F)cc(C(F)(F)F)c1)c1nc(N2CCOCC2)nn1-c1ccc(C#N)cn1 (centres unmarked) [I-158]	100		100	pest or weed control at 5 µg/cm2 [6]: 100%
CCS(=O)(=O)c1cc(OC(F)(F)F)cc(C(=O)NC(C)c2nc(N(C)C)nn2-c2ncc(Cl)cn2)c1 (centres unmarked) [I-194]	100	100	100	
CC(=O)Nc1nc(C(C)NC(=O)c2cc(OC(F)(F)F)cc(C3CC3)c2)n(-c2ccc(C#N)cn2)n1 (centres unmarked) [I-124]	100		100	pest or weed control at 5 µg/cm2 [6]: 100%
CC(NC(=O)c1cc(Cl)cc(C(F)(F)F)c1)c1nc(SC(F)(C(F)(F)F)C(F)(F)F)nn1-c1ccc(Cl)cn1 (centres unmarked) [I-070]				pest or weed control at 5 µg/cm2 [6]: 100%; pest or weed control at 0.004 mg [1]: 100%; pest or weed control at 0.02 mg [1]: 100%
C[C@H](NC(=O)c1cc(OC(F)(F)F)cc(C2CC2)c1)c1nc(N2CCCC2)nn1-c1ncccn1 [I-203]	100	100	100	
CC(NC(=O)c1cc(OC(F)(F)F)cc(C2CC2)c1)c1nc(N2CCOCC2)nn1-c1ccc(C#N)cn1 (centres unmarked) [I-161]	100			pest or weed control at 5 µg/cm2 [6]: 100%
CC(NC(=O)c1cc(OC(F)(F)F)cc(S(=O)(=O)C(C)C)c1)c1nc(N(C)C)nn1-c1ncc(Cl)cn1 (centres unmarked) [I-191]	100	90		

Reference: US20230028441A1, “NOVEL HETEROARYL-TRIAZOLE COMPOUNDS AS PESTICIDES” (Bayer Aktiengesellschaft, priority 2019, published 2023)
